Structures can show the parent of a compound that is named as a salt. Where two headings read alike, the source gives them in different places.
Target: recombinant human GST-Syk (Homo sapiens (Human), UniProt P43405)
Test: Homogeneous Time-Resolved Fluorescence (HTRF) Assay for the Recombinant Human Syk Enzyme
Type: biochemical
Conditions: recombinant human GST-Syk 5 pM, ATP 25 μM
Method: Homogeneous Time-Resolved Fluorescence (HTRF) Assay for the Recombinant Human Syk Enzyme:
A recombinant GST-hSyk fusion protein was used to measure potency of compounds to inhibit human Syk activity. The recombinant human GST-Syk (Carna Biosciences #08-176) (5 pM final concentration) was incubated with various concentrations of the inhibitor diluted in DMSO (0.1% final concentration) for 10 minutes at room temperature in 15 mM Tris-HCl (pH 7.5), 0.01% tween 20, 2 mM DTT in 384 well plate format. To initiate the reaction the biotinylated substrate peptide (250 nM final concentration) that contains the phosphorylation site for Syk was added with magnesium (5 mM final concentration) and ATP (25 μM final concentration). Final volume of the reaction was 10 μL. Phosphorylation of the peptide was allowed to proceed for 45′ at room temperature. To quench the reaction and detect the phosphorylated product, 2 nM of a Europium-anti-phosphotyrosine antibody (Perkin Elmer #AD0161) and 70 nM SA-APC (Perkin-Elmer #CR130-100) were added together in 15 mM Tris pH 7.5, 40 mM EDTA, 0.01% Tween 20. Final volume of the quenching solution was 10 μL. The resulting HTRF signal was measured after 30 minutes on a EnVision (Perkin-Elmer) reader using a time-resolved fluorescence protocol. […] IC50 values are also provided for the following representative compounds: […]

[1] = read-out: rhSyk Activity (IC50)
[2] = 10-dose titration, read-out: rhSyk

Row | Compound | IC50 [1] | IC50 [2]
1 | Cc1cc(Nc2nccc(C(F)(F)F)n2)cc(-c2cnc(C(=O)C3CCC(=O)CC3(C)C)s2)c1 (racemic) [Example 11, N-(3-{2-[(2,2-dimethyl-4-oxocyclohexyl)carbonyl]-1,3-thiazol-5-yl}-5-methylphenyl)-4-(trifluoromethyl)pyrimidin-2-aminium trifluoroacetate] | 100 to 1000 nM | –
2 | Cc1cc(Nc2nccc(C)n2)cc(-c2cnc(CC3(O)CCC(C(=O)OC(C)(C)C)CC3)s2)c1 (single isomer, unassigned) [Example 5, Step 3 (cis isomer), tert-butyl cis-4-hydroxy-4-[(5-{3-methyl-5-[(4-methylpyrimidin-2-yl)amino]phenyl}-1,3-thiazol-2-yl)methyl]cyclohexanecarboxylate] | 100 to 1000 nM | –
3 | Cc1cc(Nc2nccc(C)n2)cc(-c2cnc(CC3(O)CCC(C(=O)OC(C)(C)C)CC3)s2)c1 (single isomer, unassigned) [Example 5, Step 3 (trans isomer), tert-butyl trans-4-hydroxy-4-[(5-{3-methyl-5-[(4-methylpyrimidin-2-yl)amino]phenyl}-1,3-thiazol-2-yl)methyl]cyclohexanecarboxylate] | 100 to 1000 nM | 318 nM
4 | Cc1cc(Nc2nccc(C(F)(F)F)n2)cc(-c2cnc(C(C)(O)[C@H]3CC[C@H](c4nn[nH]n4)CC3)s2)c1 (single isomer, unassigned) [Example 6 (faster eluting enantiomer), 2-{[3-(2-{1-hydroxy-1-[trans-4-(2H-tetrazol-5-yl)cyclohexyl]ethyl}-1,3-thiazol-5-yl)-5-methylphenyl]amino}-4-(trifluoromethyl)pyrimidin-1-ium trifluoroacetate] | ≤ 100 nM | –
5 | Cc1cc(Nc2nccc(C(F)(F)F)n2)cc(-c2cnc(C(C)(O)[C@H]3CC[C@H](c4nn[nH]n4)CC3)s2)c1 (single isomer, unassigned) [Example 6 (slower eluting enantiomer), 2-{[3-(2-{1-hydroxy-1-[trans-4-(2H-tetrazol-5-yl)cyclohexyl]ethyl}-1,3-thiazol-5-yl)-5-methylphenyl]amino}-4-(trifluoromethyl)pyrimidin-1-ium trifluoroacetate] | ≤ 100 nM | –
6 | Cc1cc(Nc2nccc(C)n2)cc(-c2cnc(C[C@H]3CC[C@@H](C(=O)O)CC3)s2)c1 (single isomer, unassigned) [Example 13 (cis, faster eluting isomer), cis-4-[(5-{3-methyl-5-[(4-methylpyrimidin-2-yl)amino]phenyl}-1,3-thiazol-2-yl)methyl]cyclohexanecarboxylic acid] | ≤ 100 nM | –
7 | Cc1cc(Nc2nccc(C)n2)cc(-c2cnc(C[C@H]3CC[C@H](C(=O)O)CC3)s2)c1 (single isomer, unassigned) [Example 13 (trans, slower eluting isomer), trans-4-[(5-{3-methyl-5-[(4-methylpyrimidin-2-yl)amino]-phenyl}-1,3-thiazol-2-yl)methyl]cyclohexanecarboxylic acid] | ≤ 100 nM | –
8 | Cc1cc(Nc2nccc(C)n2)cc(-c2cnc(C[C@]3(O)CC[C@H](C(=O)O)CC3)s2)c1 [5 (trans isomer), trans-4-hydroxy-4-[(5-{3-methyl-5-[(4-methylpyrimidin-2-yl)amino]phenyl}-1,3-thiazol-2-yl)methyl]cyclohexanecarboxylic acid] | ≤ 100 nM | –
9 | Cc1cc(Nc2nccc(C(F)(F)F)n2)cc(-c2cnc(C(=O)C3CCC4(CC3)OCCO4)s2)c1 [Example 1-20, 1,4-dioxaspiro[4.5]dec-8-yl[5-(3-methyl-5-{[4-(trifluoromethyl)pyrimidin-2-yl]amino}phenyl)-1,3-thiazol-2-yl]methanone] | 100 to 1000 nM | –
10 | CCC(=O)O[C@@H]1CCC(C(C)(O)c2ncc(-c3cc(C)cc(Nc4nccc(C)n4)c3)s2)C[C@H]1C (some centres unmarked) [Example 2-16] | ≤ 100 nM | 93 nM

Second part, the molecule after the results:

Row | IC50 [1] | IC50 [2] | Compound
11 | ≤ 100 nM | – | CCCCOC(=O)[C@H]1CC[C@H](C(C)(O)c2ncc(-c3cc(C)cc(Nc4nccc(C(F)(F)F)n4)c3)s2)CC1 (relative stereo) [Example 1, Step 1, butyl trans-4-{1-hydroxy-1-[5-(3-methyl-5-{[4-(trifluoromethyl)pyrimidin-2-yl]amino}-phenyl)-1,3-thiazol-2-yl]ethyl}cyclohexanecarboxylate]
12 | 100 to 1000 nM | – | CCCCOC(=O)[C@H]1CC[C@H](C(C)(O)c2ncc(-c3cc(C)cc(Nc4nccc(C(F)F)n4)c3)s2)CC1 (single isomer, unassigned)
13 | ≤ 100 nM | – | Cc1cc(Nc2nccc(C(F)(F)F)n2)cc(-c2cnc([C@@](O)(C3CC3)[C@H]3CC[C@H](C(=O)O)CC3)s2)c1 (single isomer, unassigned) [Example 2 (from Intermediate 28 faster eluting enantiomer), trans-4-{(R or S)-cyclopropyl(hydroxy)[5-(3-methyl-5-{[4-(trifluoromethyl)pyrimidin-2-yl]amino}phenyl)-1,3-thiazol-2-yl]methyl}cyclohexanecarboxylic acid]
14 | ≤ 100 nM | – | Cc1cc(Nc2nccc(C(F)(F)F)n2)cc(-c2cnc([C@@](O)(C3CC3)[C@H]3CC[C@H](C(=O)O)CC3)s2)c1 (single isomer, unassigned) [Example 2 (from Intermediate 28 slower eluting enantiomer), trans-4-{(R or S)-cyclopropyl(hydroxy)[5-(3-methyl-5-{[4-(trifluoromethyl)pyrimidin-2-yl]amino}phenyl)-1,3-thiazol-2-yl]methyl}cyclohexanecarboxylic]
15 | ≤ 100 nM | 1 nM | Cc1cc(Nc2nccc(C)n2)cc(-c2cnc(C(C)(O)[C@H]3CC[C@H](C(=O)O)CC3)s2)c1 (single isomer, unassigned) [Example 2-52, trans-4-[(1R or S)-hydroxy-1-(5-{3-methyl-5-[(4-methylpyrimidin-2-yl)amino]phenyl}-1,3-thiazol-2-yl)ethyl]cyclohexanecarboxylic acid]
16 | ≤ 100 nM | < 0.5 nM | Cc1cc(Nc2nccc(C(F)F)n2)cc(-c2cnc(C(C)(O)[C@H]3CC[C@H](C(=O)O)CC3)s2)c1 (single isomer, unassigned) [Example 2-77, trans-4-{(1R or S)-[5-(3-{[4-(difluoromethyl)pyrimidin-2-yl]amino}-5-methylphenyl)-1,3-thiazol-2-yl]-1-hydroxyethyl}cyclohexanecarboxylic acid]
17 | ≤ 100 nM | – | Cc1cc(Nc2nccc(C(F)(F)F)n2)cc(-c2cnc(C(C)(O)C3CCC(C)(C(=O)O)CC3)s2)c1 (single isomer, unassigned) [Example 3 (isomer 3), 4-{1-hydroxy-1-[5-(3-methyl-5-{[4-(trifluoromethyl)pyrimidin-2-yl]amino}phenyl)-1,3-thiazol-2-yl]ethyl}-1-methylcyclohexanecarboxylic acid]
18 | ≤ 100 nM | – | Cc1ccnc(Nc2cc(C)c(Br)c(-c3cnc([C@](C)(O)[C@H]4CC[C@H](C(=O)O)CC4)s3)c2)n1 (single isomer, unassigned) [Example 8, trans-4-[(1R or 1S)-1-(5-{2-bromo-3-methyl-5-[(4-methylpyrimidin-2-yl)amino]phenyl}-1,3-thiazol-2-yl)-1-hydroxyethyl]cyclohexanecarboxylic acid]
19 | ≤ 100 nM | < 0.5 nM | C[C@](O)(c1ncc(-c2cc(CO)cc(Nc3nccc(C(F)(F)F)n3)c2)s1)[C@H]1CC[C@H](C(=O)O)CC1 (single isomer, unassigned) [Example 15, trans-4-[(1R or 1S)-1-hydroxy-1-{5-[3-(hydroxymethyl)-5-{[4-(trifluoromethyl)pyrimidin-2-yl]amino}phenyl]-1,3-thiazol-2-yl}ethyl]cyclohexanecarboxylic acid]
20 | ≤ 100 nM | 1 nM | CC(O)(c1ncc(-c2cc(Nc3nccc(C(F)(F)F)n3)cc(C3CC3)c2)s1)[C@H]1CC[C@H](C(=O)O)CC1 (single isomer, unassigned) [Example 16, trans-4-{(1R or 1S)-[5-(3-cyclopropyl-5-{[4-(trifluoromethyl)pyrimidin-2-yl]amino}phenyl)-1,3-thiazol-2-yl]-1-hydroxyethyl}cyclohexanecarboxylic acid]
21 | ≤ 100 nM | 1 nM | C[C@@](O)(c1ncc(-c2cc(F)cc(Nc3nccc(C(F)(F)F)n3)c2)s1)[C@H]1CC[C@H](C(=O)O)CC1 (single isomer, unassigned) [Example 17, trans-4-{(1R or 1S)-1-[5-(3-fluoro-5-{[4-(trifluoromethyl)pyrimidin-2-yl]amino}phenyl)-1,3-thiazol-2-yl]-1-hydroxyethyl}cyclohexanecarboxylic acid]
22 | ≤ 100 nM | < 0.5 nM | CC(O)(c1ncc(-c2cc(Nc3nccc(C(F)(F)F)n3)cc(C(F)F)c2)s1)[C@H]1CC[C@H](C(=O)O)CC1 (single isomer, unassigned) [Example 18, trans-4-((1R or 1S)-{5-[3-(difluoromethyl)-5-{[4-(trifluoromethyl)pyrimidin-2-yl]amino}phenyl]-1,3-thiazol-2-yl}-1-hydroxyethyl)cyclohexanecarboxylic acid]
23 | 1000 to 10000 nM | 1260 nM | CCCCC(=O)OC1CCC(C(C)(O)c2ncc(-c3cc(C)cc(Nc4nccc(C(F)(F)F)n4)c3)s2)CC1 (centres unmarked) [Example 2-3]
